Measurements published in paper PMC5218480 (PLoS ONE, 2017).

System: MV-4-11 cells
Experiment: Gene expression microarray analysis (Affymetrix PrimeView) and GSEA
Format: cell-based, human
Set-up: RFU PODN (11730768_x_at) / Fold change /veh PODN (11730768_x_at) / RFU LINC00158 (11744669_a_at) / Fold change /veh LINC00158 (11744669_a_at) / RFU DUSP10 (11751237_a_at) / Fold change /veh DUSP10 (11751237_a_at) / RFU ID3 (11757404_x_at) / Fold change /veh ID3 (11757404_x_at) / RFU PLEKHG5 (11737974_s_at) / Fold change /veh PLEKHG5 (11737974_s_at) / RFU LRRC4B (11730491_at) / Fold change /veh LRRC4B (11730491_at) / RFU GIMAP4 (11747438_a_at) / Fold change /veh GIMAP4 (11747438_a_at) / RFU KRT8 (11758183_x_at) / Fold change /veh KRT8 (11758183_x_at) / RFU CNN1 (11734310_a_at) / Fold change /veh CNN1 (11734310_a_at) / RFU VPS37D (11726825_at) / Fold change /veh VPS37D (11726825_at) / RFU C10orf10 (11716522_x_at) / Fold change /veh C10orf10 (11716522_x_at) / RFU KIR2DL2 /// KIR2DL4 /// KIR2DL5A /// KIR2DL5B /// KIR2DS1 /// KIR2DS2 /// KIR2DS3 /// KIR2DS4 /// KIR3DL3 /// KIR3DL3 /// KIR3DS1 (11738374_at) / Fold change /veh KIR2DL2 /// KIR2DL4 /// KIR2DL5A /// KIR2DL5B /// KIR2DS1 /// KIR2DS2 /// KIR2DS3 /// KIR2DS4 /// KIR3DL3 /// KIR3DL3 /// KIR3DS1 (11738374_at) / RFU C1QL1 (11718748_at) / Fold change /veh C1QL1 (11718748_at) / RFU TMPRSS4 (11747572_a_at) / Fold change /veh TMPRSS4 (11747572_a_at) / RFU HAMP (11756126_x_at) / Fold change /veh HAMP (11756126_x_at) / RFU RNFT2 (11725882_a_at) / Fold change /veh RNFT2 (11725882_a_at) / RFU NR4A2 (11747474_a_at) / Fold change /veh NR4A2 (11747474_a_at) / RFU ABCC12 (11746883_a_at) / Fold change /veh ABCC12 (11746883_a_at) / RFU TMEM136 (11760407_x_at) / Fold change /veh TMEM136 (11760407_x_at) / RFU CLDN22 /// WWC2 (11732394_at) / Fold change /veh CLDN22 /// WWC2 (11732394_at) / RFU HLA-DPB1 (11760878_x_at) / Fold change /veh HLA-DPB1 (11760878_x_at) / RFU SPINT1 (11716480_a_at) / Fold change /veh SPINT1 (11716480_a_at) / RFU GAP43 (11754022_s_at) / Fold change /veh GAP43 (11754022_s_at) / RFU A4GNT (11735810_at) / Fold change /veh A4GNT (11735810_at) / RFU PRB3 (11715151_x_at) / Fold change /veh PRB3 (11715151_x_at) / RFU TUBB4B (11761932_at) / Fold change /veh TUBB4B (11761932_at) / RFU CAPN14 (11732068_a_at) / Fold change /veh CAPN14 (11732068_a_at) / RFU TMCC2 (11721928_a_at) / Fold change /veh TMCC2 (11721928_a_at) / RFU IRGQ (11745062_a_at) / Fold change /veh IRGQ (11745062_a_at) / RFU FAM174B (11720279_a_at) / Fold change /veh FAM174B (11720279_a_at) / RFU TMPRSS4 (11748680_a_at) / Fold change /veh TMPRSS4 (11748680_a_at) / RFU FAM212B (11763350_a_at) / Fold change /veh FAM212B (11763350_a_at) / RFU PLEKHG5 (11743358_a_at) / Fold change /veh PLEKHG5 (11743358_a_at) / RFU ZSCAN30 (11745921_a_at) / Fold change /veh ZSCAN30 (11745921_a_at) / RFU CMKLR1 (11741424_a_at) / Fold change /veh CMKLR1 (11741424_a_at) / RFU LOC101060620 /// MAPK8IP1 (11723275_at) / Fold change /veh LOC101060620 /// MAPK8IP1 (11723275_at) / RFU SPTSSB (11747773_x_at) / Fold change /veh SPTSSB (11747773_x_at) / RFU PRSS12 (11739890_at) / Fold change /veh PRSS12 (11739890_at) / RFU BIN1 (11741810_x_at) / Fold change /veh BIN1 (11741810_x_at) / RFU WNT11 (11732464_a_at) / Fold change /veh WNT11 (11732464_a_at) / RFU C10orf10 (11716521_a_at) / Fold change /veh C10orf10 (11716521_a_at) / RFU C5orf56 (11738089_at) / Fold change /veh C5orf56 (11738089_at) / RFU CYB561 (11721691_x_at) / Fold change /veh CYB561 (11721691_x_at) / RFU ANKRD19P (11752326_a_at) / Fold change /veh ANKRD19P (11752326_a_at) / RFU OR2T12 /// OR2T33 /// OR2T8 (11738714_s_at) / Fold change /veh OR2T12 /// OR2T33 /// OR2T8 (11738714_s_at) / RFU VCAN (11748164_a_at) / Fold change /veh VCAN (11748164_a_at) / RFU JSRP1 (11732532_at) / Fold change /veh JSRP1 (11732532_at) / RFU KRTAP10-11 (11738290_x_at) / Fold change /veh KRTAP10-11 (11738290_x_at) / RFU MYO3A (11730013_a_at) / Fold change /veh MYO3A (11730013_a_at) / RFU EBF3 (11725865_a_at) / Fold change /veh EBF3 (11725865_a_at) / RFU CAMK2N1 (11719241_x_at) / Fold change /veh CAMK2N1 (11719241_x_at) / RFU C5orf56 (11738088_a_at) / Fold change /veh C5orf56 (11738088_a_at) / RFU OLFML3 (11715873_a_at) / Fold change /veh OLFML3 (11715873_a_at) / RFU LOC100653217 /// NTM (11731650_a_at) / Fold change /veh LOC100653217 /// NTM (11731650_a_at) / RFU MAPK11 (11762145_a_at) / Fold change /veh MAPK11 (11762145_a_at) / RFU FIZ1 (11724087_x_at) / Fold change /veh FIZ1 (11724087_x_at) / RFU OASL (11726364_x_at) / Fold change /veh OASL (11726364_x_at) / RFU SOX15 (11748057_x_at) / Fold change /veh SOX15 (11748057_x_at) / RFU CD79A (11719716_a_at) / Fold change /veh CD79A (11719716_a_at) / RFU HIST1H1D (11736915_at) / Fold change /veh HIST1H1D (11736915_at) / RFU CASKIN2 (11723855_a_at) / Fold change /veh CASKIN2 (11723855_a_at) / RFU LOC730098 (11760151_x_at) / Fold change /veh LOC730098 (11760151_x_at) / RFU OR4N2 (11742367_at) / Fold change /veh OR4N2 (11742367_at) / RFU PRRT2 (11749266_a_at) / Fold change /veh PRRT2 (11749266_a_at) / RFU SNX32 (11753110_a_at) / Fold change /veh SNX32 (11753110_a_at) / RFU CDHR5 (11726645_a_at) / Fold change /veh CDHR5 (11726645_a_at) / RFU RCAN1 (11760418_a_at) / Fold change /veh RCAN1 (11760418_a_at) / RFU FAM167A (11723789_a_at) / Fold change /veh FAM167A (11723789_a_at) / RFU FAM26E (11764081_at) / Fold change /veh FAM26E (11764081_at) / RFU ISYNA1 (11749810_s_at) / Fold change /veh ISYNA1 (11749810_s_at) / RFU ACY1 (11761880_at) / Fold change /veh ACY1 (11761880_at) / RFU 11764098_at / Fold change /veh 11764098_at / RFU SAMD14 (11745864_x_at) / Fold change /veh SAMD14 (11745864_x_at) / RFU NPB (11741838_a_at) / Fold change /veh NPB (11741838_a_at) / RFU TMPRSS6 (11731388_a_at) / Fold change /veh TMPRSS6 (11731388_a_at) / RFU KRTAP10-2 (11738614_at) / Fold change /veh KRTAP10-2 (11738614_at) / RFU ARHGAP8 /// PRR5-ARHGAP8 (11727945_x_at) / Fold change /veh ARHGAP8 /// PRR5-ARHGAP8 (11727945_x_at) / RFU KRTAP5-7 /// NADSYN1 (11734609_at) / Fold change /veh KRTAP5-7 /// NADSYN1 (11734609_at) / RFU RASL12 (11751679_a_at) / Fold change /veh RASL12 (11751679_a_at) / RFU CDKN2B (11736163_a_at) / Fold change /veh CDKN2B (11736163_a_at) / RFU PRF1 (11729649_at) / Fold change /veh PRF1 (11729649_at) / RFU, ZNF638 /// ZNF638-IT1 / Fold change vs veh, ZNF638 /// ZNF638-IT1 / RFU, PANK3 / Fold change vs veh, PANK3 / RFU, SH3YL1 / Fold change vs veh, SH3YL1 / RFU, ZEB2 / Fold change vs veh, ZEB2 / RFU, NRIP1 / Fold change vs veh, NRIP1 / RFU, PTTG1IP / Fold change vs veh, PTTG1IP / RFU, CAPN2 / Fold change vs veh, CAPN2 / RFU, MED14 / Fold change vs veh, MED14 / RFU, SNORA58 / Fold change vs veh, SNORA58 / RFU, C1orf63 / Fold change vs veh, C1orf63 / RFU, LRRFIP1 / Fold change vs veh, LRRFIP1 / RFU, NDUFAF7 / Fold change vs veh, NDUFAF7 / RFU, SLC12A2 / Fold change vs veh, SLC12A2 / RFU, IBTK / Fold change vs veh, IBTK / RFU, ESF1 / Fold change vs veh, ESF1 / Fold change vs veh, TMEM50B / RFU, TAOK1 / Fold change vs veh, TAOK1 / RFU, ACBD3 / Fold change vs veh, ACBD3 / RFU, TMA16 / Fold change vs veh, TMA16 / RFU, RWDD3 / Fold change vs veh, RWDD3 / RFU, BCAT1 / Fold change vs veh, BCAT1 / RFU, EDEM3 / Fold change vs veh, EDEM3 / RFU, TMEM33 / Fold change vs veh, TMEM33 / RFU, WDR75 / Fold change vs veh, WDR75 / RFU, AHCTF1 / Fold change vs veh, AHCTF1 / RFU, TFRC / Fold change vs veh, TFRC / RFU, ZDHHC17 / Fold change vs veh, ZDHHC17 / RFU, NOM1 / Fold change vs veh, NOM1 / RFU, ARL8B / Fold change vs veh, ARL8B / RFU, ZBTB11 / Fold change vs veh, ZBTB11 / RFU, TAMM41 / Fold change vs veh, TAMM41 / RFU, KIAA1704 /// LOC100996395 / Fold change vs veh, KIAA1704 /// LOC100996395 / RFU, ING1 / Fold change vs veh, ING1 / RFU, TRMT61B / Fold change vs veh, TRMT61B / RFU, FUBP3 / Fold change vs veh, FUBP3 / RFU, TP53 / Fold change vs veh, TP53 / RFU, TNKS2 / Fold change vs veh, TNKS2 / RFU, ZFP14 / Fold change vs veh, ZFP14 / RFU, ACTR2 / Fold change vs veh, ACTR2 / RFU, PPP3R1 / Fold change vs veh, PPP3R1 / RFU, PIK3R1 / Fold change vs veh, PIK3R1 / RFU, HNRNPA1 / Fold change vs veh, HNRNPA1 / RFU, RNF170 / Fold change vs veh, RNF170 / RFU, ZNF28 / Fold change vs veh, ZNF28 / RFU, RNGTT / Fold change vs veh, RNGTT / RFU, OGT / Fold change vs veh, OGT / RFU, BRD1 / Fold change vs veh, BRD1 / RFU, MARS / Fold change vs veh, MARS / RFU, ZNF655 / Fold change vs veh, ZNF655 / RFU, FAHD1 / Fold change vs veh, FAHD1 / RFU, BDP1 / Fold change vs veh, BDP1 / RFU, LRRCC1 / Fold change vs veh, LRRCC1 / RFU, ARID1A / Fold change vs veh, ARID1A / RFU, ZNF146 / Fold change vs veh, ZNF146 / RFU, ZNF330 / Fold change vs veh, ZNF330 / RFU, GPN3 / Fold change vs veh, GPN3 / RFU, C9orf123 / Fold change vs veh, C9orf123 / RFU, N4BP2L2 / Fold change vs veh, N4BP2L2 / RFU, ARFIP1 / Fold change vs veh, ARFIP1 / RFU, FAM179B / Fold change vs veh, FAM179B / RFU, BCL10 / Fold change vs veh, BCL10 / RFU, UHRF1BP1L / Fold change vs veh, UHRF1BP1L / RFU, BET1 / Fold change vs veh, BET1 / RFU, CNOT2 / Fold change vs veh, CNOT2 / RFU, ZNF268 / Fold change vs veh, ZNF268 / Fold change vs veh, ZNF507 / RFU, DGCR2 / Fold change vs veh, DGCR2 / RFU, WDSUB1 / Fold change vs veh, WDSUB1 / Fold change vs veh, HSP90B1 /// MIR3652 / RFU, ADSS / Fold change vs veh, ADSS / RFU, GK / Fold change vs veh, GK / RFU, ZNF148 / Fold change vs veh, ZNF148 / RFU, TAF9 / Fold change vs veh, TAF9 / RFU, SLC1A5 / Fold change vs veh, SLC1A5 / RFU, SLMO2 / Fold change vs veh, SLMO2 / RFU, ABCC4 / Fold change vs veh, ABCC4 / RFU, LOC101060439 /// RAP1B / Fold change vs veh, LOC101060439 /// RAP1B / RFU, RFX7 / Fold change vs veh, RFX7 / RFU, GTPBP10 / Fold change vs veh, GTPBP10 / RFU, CNEP1R1 / Fold change vs veh, CNEP1R1 / RFU, BIVM-ERCC5 /// ERCC5 / Fold change vs veh, BIVM-ERCC5 /// ERCC5 / RFU, ILF3 / Fold change vs veh, ILF3 / RFU 11762660_at / Fold change /veh 11762660_at / RFU VCAN (11757783_s_at) / Fold change /veh VCAN (11757783_s_at) / RFU DDX43 (11728927_at) / Fold change /veh DDX43 (11728927_at) / RFU KRT8 (11758188_x_at) / Fold change /veh KRT8 (11758188_x_at) / RFU NKD1 (11759106_at) / Fold change /veh NKD1 (11759106_at) / RFU SRD5A1 (11742802_a_at) / Fold change /veh SRD5A1 (11742802_a_at) / RFU TPSAB1 /// TPSB2 (11721975_s_at) / Fold change /veh TPSAB1 /// TPSB2 (11721975_s_at) / RFU GSTM3 (11746129_a_at) / Fold change /veh GSTM3 (11746129_a_at) / RFU IL23R (11737362_x_at) / Fold change /veh IL23R (11737362_x_at) / RFU TMEM51 (11727254_a_at) / Fold change /veh TMEM51 (11727254_a_at) / RFU PIWIL2 (11732686_x_at) / Fold change /veh PIWIL2 (11732686_x_at) / RFU ORM1 (11744905_x_at) / Fold change /veh ORM1 (11744905_x_at) / RFU CCDC152 (11743942_at) / Fold change /veh CCDC152 (11743942_at) / RFU ECM1 (11717891_a_at) / Fold change /veh ECM1 (11717891_a_at) / RFU IL23R (11748794_a_at) / Fold change /veh IL23R (11748794_a_at) / RFU TNFAIP8L3 (11732012_x_at) / Fold change /veh TNFAIP8L3 (11732012_x_at) / RFU MBOAT4 (11741988_at) / Fold change /veh MBOAT4 (11741988_at) / RFU 11764193_at / Fold change /veh 11764193_at / RFU TMEM53 (11763286_at) / Fold change /veh TMEM53 (11763286_at) / RFU MAGEB2 (11727129_at) / Fold change /veh MAGEB2 (11727129_at) / RFU TMEM200A (11744735_a_at) / Fold change /veh TMEM200A (11744735_a_at) / RFU CCDC152 (11751479_a_at) / Fold change /veh CCDC152 (11751479_a_at) / RFU FAM211A (11726209_a_at) / Fold change /veh FAM211A (11726209_a_at) / RFU RGS16 (11746705_a_at) / Fold change /veh RGS16 (11746705_a_at) / RFU VCAN (11755009_s_at) / Fold change /veh VCAN (11755009_s_at) / RFU RHOB (11743442_s_at) / Fold change /veh RHOB (11743442_s_at) / RFU RGS16 (11720943_a_at) / Fold change /veh RGS16 (11720943_a_at) / RFU RGS16 (11720944_at) / Fold change /veh RGS16 (11720944_at) / RFU, VPS4B / Fold change vs veh, VPS4B / RFU, CREB1 / Fold change vs veh, CREB1 / RFU, DNAJC13 / Fold change vs veh, DNAJC13 / RFU, GNAQ / Fold change vs veh, GNAQ / RFU, CDK5R1 / Fold change vs veh, CDK5R1 / RFU, ZRANB3 / Fold change vs veh, ZRANB3 / RFU, CUL4A / Fold change vs veh, CUL4A / RFU, CCNY / Fold change vs veh, CCNY / RFU, UFL1 / Fold change vs veh, UFL1 / RFU, COG3 / Fold change vs veh, COG3 / RFU, DIAPH2 / Fold change vs veh, DIAPH2 / RFU, SKA2 / Fold change vs veh, SKA2 / RFU, AFF3 / Fold change vs veh, AFF3 / RFU, LMF1 / Fold change vs veh, LMF1 / RFU, IPO11 / Fold change vs veh, IPO11 / RFU, DFFB / Fold change vs veh, DFFB / RFU, FOXP1 / Fold change vs veh, FOXP1 / RFU, CARD8 / Fold change vs veh, CARD8 / RFU, STRN3 / Fold change vs veh, STRN3 / RFU, ADK / Fold change vs veh, ADK / RFU, RASSF2 / Fold change vs veh, RASSF2 / RFU, WIPF1 / Fold change vs veh, WIPF1 / RFU, LARP1B / Fold change vs veh, LARP1B / RFU, RASA1 / Fold change vs veh, RASA1 / RFU, RB1 / Fold change vs veh, RB1 / RFU, PPFIA1 / Fold change vs veh, PPFIA1 / RFU, MAT2A / Fold change vs veh, MAT2A / RFU, CCT5 / Fold change vs veh, CCT5 / RFU, WDR92 / Fold change vs veh, WDR92 / RFU, CUX1 / Fold change vs veh, CUX1 / RFU, TTC7A / Fold change vs veh, TTC7A / RFU, TMEM135 / Fold change vs veh, TMEM135 / RFU, DEPTOR / Fold change vs veh, DEPTOR / RFU, CPM / Fold change vs veh, CPM / RFU, DNAJB6 / Fold change vs veh, DNAJB6 / RFU, CACNA2D3 / Fold change vs veh, CACNA2D3 / RFU, DTX4 / Fold change vs veh, DTX4 / RFU, TFCP2 / Fold change vs veh, TFCP2 / RFU, GMCL1 /// GMCL1P1 / Fold change vs veh, GMCL1 /// GMCL1P1 / RFU, AEBP2 / Fold change vs veh, AEBP2 / RFU, SNHG1 /// SNORD22 /// SNORD25 /// SNORD26 /// SNORD27 /// SNORD28 /// SNORD29 /// SNORD31 / Fold change vs veh, SNHG1 /// SNORD22 /// SNORD25 /// SNORD26 /// SNORD27 /// SNORD28 /// SNORD29 /// SNORD31 / Fold change (Aza/veh), C12orf56 (ProbeSet 11735607_a_at) / Fold change (ACY-1035/veh), C12orf56 (ProbeSet 11735607_a_at) / Fold change (Aza/veh), FGFR1OP (ProbeSet 11751329_s_at) / Fold change (ACY-1035/veh), FGFR1OP (ProbeSet 11751329_s_at) / Fold change (Aza/veh), VPS36 (ProbeSet 11739960_a_at) / Fold change (ACY-1035/veh), VPS36 (ProbeSet 11739960_a_at) / RFU SYPL1 (11715823_x_at) / Fold change /veh SYPL1 (11715823_x_at) / RFU IGFBP7 (11715501_s_at) / Fold change /veh IGFBP7 (11715501_s_at) / RFU REEP3 (11722064_at) / Fold change /veh REEP3 (11722064_at) / RFU IGLL1 (11728026_x_at) / Fold change /veh IGLL1 (11728026_x_at): dose or concentration left out as unconfirmed
Conditions: ProbeSet 11726703_a_at; LIST B

Nc1ccc(-c2cccs2)cc1NC(=O)c1ccc2c(c1)cc(C1CC1)n2CCN1CCOCC1 [ACY-1035]
RFU, BCL10: 67.93 RFU
